# Test results: patent US20220363848A1, “ANTIMICROBIAL MULTILAYER FILM” (Cryovac, LLC, priority 2019, published 2022)
# System: microbes of beef purge inoculum
# Experiment: Modified film test: total aerobic plate count after contact of inoculum with antimicrobial test film
# Assay type: cell-based
# Conditions: for Antimicrobial Performance vs. VLDPE Control (percent reduction in microbes), Amide wax alone Erucamide, Test 2: primary additive 10 wt % in Affinity PL 1280G1 C8-VLDPE containing 1664 ppm cis-13-docosenamide
# Method: Each of the materials shown in Tables 1 and 2 was compounded into sealant resin, comprised of Affinity PL 1280G, a C8-VLDPE and films were prepared for microbial control testing. The primary additives were tested at 10 wt %. Secondary additives and Cis-13-docosenamide (sold under the trade name Erucamide) were tested as detailed in Table 3.
# Test 2: Each of the primary antimicrobial materials in Table 1 was compounded at 10 wt % into sealant resin comprised of Affinity PL 1280G1, a C8-VLDPE containing 1664 ppm of cis-13-docosenamide and films were prepared for microbial control testing.
# Tests 3-5: Each of the primary antimicrobial materials in Table 1 was compounded at 10% w/w into sealant resin comprised of Affinity PL 1280G, a C8-VLDPE and 2-3 wt % of the secondary antimicrobials (Table 2) or cis-13-docosenamide were added as detailed in Table 3 and films were prepared for microbial control testing.
# Due to the limitations seen in the laboratory with the ISO 22196 test, a modified film test was developed. The test protocol was designed to simulate an actual package environment. […] “Purge” is the liquid that exudes from cut meat or poultry and collects freely in the package. This is typically found in larger packages. The purge liquid can be carefully removed from the packages and used for the following tests. For the tests conducted in this study, beef purge was used. The beef purge is a combination of water, fats, enzymes and meat proteins that drain from the meat. The purge also contains the same bacterial flora as that which contaminates the surface of the meat itself. Thus, this purge could include gram positive bacteria like Lactobacillus species, (Lactic Acid Bacteria), and Listeria species, as well as, gram negative bacteria like E. coli, Campylobacter or Salmonella species.
# Antimicrobial films may contain the active ingredient extruded into the surface layer of the film, or coated onto the film. A test method was developed to provide a continuous, uniform coverage of a known amount of the inoculum on the test films.
# A 1 inch by 3 inch “tape well” is created on the antimicrobial test film. The “tape well” is crafted by cutting a 1 inch by 3 inch section from a strip of 3 inch wide vinyl tape and applying the tape to the antimicrobial film surface. The test film is secured to a Lexan sheet for stability and handling.
# To the well, 0.2 ml of an inoculum is added. The inoculums are either the meat purge or cultures of nutrient broth with E. coli (ATTC #4157 or ATTC #33876) added to the broth. The Escherichia coli is a gram-negative, facultative, anaerobic, rod-shaped, coliform bacterium.
# A 1 inch by 3 inch strip of Cryovac brand D-955, a non-barrier film, is placed over the inoculum to provide complete wetting of the test film with the inoculum and to prevent desiccation of the inoculum. The high OTR properties of the D-955 allow growth of the inoculum trapped between the antimicrobial test film and the D-955 film.
# Inoculated films are incubated at refrigerated conditions of 40° F. for both 1 and 5 days in a high humidity sealed pouch.
# The inoculum is recovered from the well by both adding the inoculum wetted D-955 film over-layment to a distilled water test tube and by swabbing the test film surface twice and placing the swab in the same test tube.
# The total aerobic plate count is enumerated using Aerobic Plate Count 3M Petri Film.
# Results are reported as log10 CFU/g. The difference in counts between the sample and control is the “delta log CFU/g”. This is mathematically converted to a percent reduction=(1−10^(−delta log CFU/g))*100
# [1] = 5 day test, beef purge inoculum, 40° F.
smiles,measurement,setting,value
"CCCCCCCC/C=C\CCCCCCCCCCCC(N)=O [Erucamide, Cis-13-docosenamide]","Antimicrobial Performance vs. VLDPE Control (percent reduction in microbes), Amide wax alone Erucamide, Test 2",[1],0%
"C[C@H](O)C(=O)[O-].[Na+] [Purasal S98, Sodium L-lactate]","Antimicrobial Performance vs. VLDPE Control (percent reduction in microbes), Amide wax alone Erucamide, Test 2",[1],0%
same,"Antimicrobial Performance vs. VLDPE Control (percent reduction in microbes), None Control, Test 1","primary additive 10 wt % in Affinity PL 1280G C8-VLDPE sealant film, no secondary additive, 5 day test, beef purge inoculum, 40° F.",0%
same,"Antimicrobial Performance vs. VLDPE Control (percent reduction in microbes), Cleanatis M1 @ 2%, Test 4","primary additive 10 wt % in VLDPE film plus 2 wt % Cleanatis M1 (With Amide wax), 5 day test, beef purge inoculum, 40° F.",8.8%
same,"Antimicrobial Performance vs. VLDPE Control (percent reduction in microbes), Cleanatis M2 @2%, Test 5","primary additive 10 wt % in VLDPE film plus 2 wt % Cleanatis M2 (With Amide wax), 5 day test, beef purge inoculum, 40° F.",64.5187%
same,"Antimicrobial Performance vs. VLDPE Control (percent reduction in microbes), KANCOR CLS @ 2%, Test 3","primary additive 10 wt % in VLDPE film plus 2 wt % Kancor OxiKan CLS (With Amide wax), 5 day test, beef purge inoculum, 40° F.",92.0567%
same,"Percent Reduction in Microbes of Test Samples at Day 5 versus the ""Additive Controls"", None Control, Test 1","primary additive 10 wt % in VLDPE film, control = VLDPE film, Day 5",0%
same,"Percent Reduction in Microbes of Test Samples at Day 5 versus the ""Additive Controls"", Amide wax Erucamide, Test 2","primary additive 10 wt % in VLDPE with Erucamide, control = VLDPE + Erucamide film, Day 5",0%
same,"Percent Reduction in Microbes of Test Samples at Day 5 versus the ""Additive Controls"", Cleanatis M1 @ 2%, Test 4","primary additive 10 wt % plus Cleanatis M1 2%, control = VLDPE + Cleanatis M1 film, Day 5",Growth
same,"Percent Reduction in Microbes of Test Samples at Day 5 versus the ""Additive Controls"", Cleanatis M2 @2%, Test 5","primary additive 10 wt % plus Cleanatis M2 2%, control = VLDPE + Cleanatis M2 film, Day 5",Growth
same,"Percent Reduction in Microbes of Test Samples at Day 5 versus the ""Additive Controls"", KANCOR CLS @ 2%, Test 3","primary additive 10 wt % plus KANCOR CLS 2%, control = VLDPE + KANCOR CLS film, Day 5",22.3735%
